Measured values as given in publication PMC6728800, “Effect of piceatannol-rich passion fruit seed extract on human glyoxalase I–mediated cancer cell growth” (Biochemistry and Biophysics Reports, 2019).
Where two headings read alike, the source gives them in different places.

Target: T1, human glyoxalase I (GLO I) (Homo sapiens, UniProt Q04760)
T1 construct: gene GLO1; recombinant GLO I
T1 sequence (Q04760 2-184): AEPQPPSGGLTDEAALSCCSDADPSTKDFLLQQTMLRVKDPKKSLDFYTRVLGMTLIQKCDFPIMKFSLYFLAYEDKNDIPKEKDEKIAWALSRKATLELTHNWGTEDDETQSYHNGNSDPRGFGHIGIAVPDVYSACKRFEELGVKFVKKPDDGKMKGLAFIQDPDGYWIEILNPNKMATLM
Experiment: spectrophotometric assay of S-D-lactoylglutathione formation at […] nm with recombinant GLO I
Format: biochemical

Compound	IC50 (read-out: IC50) [nM]	IC50 [nM]
Oc1cc(O)cc(C2c3c(/C=C/c4ccc(O)c(O)c4)cc(O)cc3OC2c2ccc(O)c(O)c2)c1 (centres unmarked) [scirpusin B]	4200	
Oc1cc(O)cc(/C=C/c2ccc(O)c(O)c2)c1 [piceatannol]		750
